Experimental data: US10703735B2, “4-phenyl-coumarin derivatives, processes for their preparation and uses thereof for the treatment of cancer” (Lead Discovery Center GmbH, priority 2018, dated 2020)

Experiments:
[1] = biological target: mitochondrial RNA-polymerase (POLRMT) (Mus musculus, UniProt Q8BKF1); test: Homogeneous TR-FRET assay for mitochondrial transcription activity; format: biochemical; details: homogeneous TR-FRET assay according to Example 4; read-out: mitochondrial transcription activity (IC-50)
Sequence of mitochondrial RNA-polymerase (POLRMT) (Q8BKF1 42-1207): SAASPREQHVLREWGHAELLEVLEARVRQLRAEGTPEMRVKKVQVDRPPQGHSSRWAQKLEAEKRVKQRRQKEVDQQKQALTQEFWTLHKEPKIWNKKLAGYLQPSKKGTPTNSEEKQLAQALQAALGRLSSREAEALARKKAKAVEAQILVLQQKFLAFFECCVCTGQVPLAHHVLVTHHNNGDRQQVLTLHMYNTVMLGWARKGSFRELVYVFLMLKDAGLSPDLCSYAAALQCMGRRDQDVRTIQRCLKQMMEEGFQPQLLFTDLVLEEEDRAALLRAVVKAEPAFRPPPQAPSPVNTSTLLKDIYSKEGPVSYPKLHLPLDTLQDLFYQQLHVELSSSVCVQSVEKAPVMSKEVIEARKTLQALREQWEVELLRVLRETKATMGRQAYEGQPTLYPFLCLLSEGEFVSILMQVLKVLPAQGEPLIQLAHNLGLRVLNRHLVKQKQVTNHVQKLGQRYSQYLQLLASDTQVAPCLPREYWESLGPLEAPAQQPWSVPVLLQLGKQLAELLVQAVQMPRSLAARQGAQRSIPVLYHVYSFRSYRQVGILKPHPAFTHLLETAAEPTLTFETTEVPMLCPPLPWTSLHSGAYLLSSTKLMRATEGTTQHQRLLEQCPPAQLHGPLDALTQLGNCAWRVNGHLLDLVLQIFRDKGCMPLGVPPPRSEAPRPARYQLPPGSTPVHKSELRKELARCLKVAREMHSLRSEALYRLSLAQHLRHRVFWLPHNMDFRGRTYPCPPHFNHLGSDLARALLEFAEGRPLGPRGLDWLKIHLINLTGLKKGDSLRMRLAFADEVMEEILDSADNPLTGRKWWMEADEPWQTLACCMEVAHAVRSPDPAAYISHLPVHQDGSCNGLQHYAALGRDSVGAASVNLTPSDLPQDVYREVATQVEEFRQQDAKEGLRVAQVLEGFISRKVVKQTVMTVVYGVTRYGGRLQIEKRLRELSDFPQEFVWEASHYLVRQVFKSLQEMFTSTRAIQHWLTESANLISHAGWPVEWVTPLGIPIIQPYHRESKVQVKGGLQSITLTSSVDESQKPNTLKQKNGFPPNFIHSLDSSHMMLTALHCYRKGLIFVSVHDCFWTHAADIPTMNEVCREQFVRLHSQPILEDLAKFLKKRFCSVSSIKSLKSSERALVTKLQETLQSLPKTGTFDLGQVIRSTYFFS
Summary of the method: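 Mouse POLRMT with TFAM and TFB2M transcribes linearized pUC-LSP template after 10 min compound preincubation (10 μM final or dilution series), started with 500 μM each nucleotide, 2 h at RT. EDTA/high-salt stop; RNA product detected by hybridized Eu/ATTO647N probe pair, TR-FRET read at 665 nm (340 nm excitation).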

[2] = tested on: mitochondrial transcription (7S RNA) in HeLa cells; test: Quantitative real time-PCR assay of inhibition of mitochondrial transcription (7S RNA) in HeLa cells; format: cell-based; details: Homo sapiens, 4 h incubation, Example 5, read-out: cellular qPCR assay IMT (IC-50)
Procedure: Quantitative real-time PCR (qRT-PCR), based on the TaqMan™ (Thermo Fisher Scientific, Waltham Mass.) technology, was carried out essentially as described in (Heid et al. 1996). HeLa cells were plated one day before compound treatment in RPMI medium supplemented with 10% Fetal Calf Serum and 2 mM L-glutamine. Cells were incubated with dilution series of compounds or vehicle (DMSO) for 4 h, prior to harvest and extraction of the RNA using the RNeasy Mini Kit (Qiagen, Hilden D), according to the manufacturer's instructions. RNA concentrations were measured spectroscopically, using a NanoDrop-2000 (Thermo Fisher Scientific, Waltham Mass.) and normalized prior to cDNA synthesis, using a ‘High-Capacity cDNA Reverse Transcription Kit’ (Thermo Fisher Scientific, Waltham Mass.). qRT-PCR was carried out using the ‘TaqMan Fast Advance Master Mix’ (Thermo Fisher Scientific, Waltham Mass.) on a 7500 Fast Real-Time PCR machine (Applied Biosystems, Foster City Calif.)
For these measurements, three genes were used to compare the effect of the scrutinized compounds in relation to their concentration. The POLRMT-gene was used to detect potential influences on nuclear transcription. Mitochondrial transcription in vivo was monitored by measurements 7S RNA. The TBP (TATA-box binding protein) gene was employed as the control (housekeeping gene) during qRT-PCR. The short-lived mitochondrial 7S RNA, which is not post-transcriptionally stabilized, allowed us to monitor rapid changes in mitochondrial transcription activity following compound addition. Biological triplicates were analyzed using the comparative CT Method (ΔΔCt) method (Bubner et al. 2004) and reported as Rq % values (Rq=Relative quantification=2-ΔΔCt).

Row | Structure (SMILES) | IC50 [1] | IC50 [2]
1 | C[C@@H](Oc1ccc2c(-c3ccccc3)cc(=O)oc2c1)C(=O)N(C)C [Compound 34, (2R)-N,N-dimethyl-2-(2-oxo-4-phenyl-chromen-7-yl)oxy-propanamide] | 100 to 1000 nM | 10 to 50 nM
2 | CCOC(=O)C(C)Oc1ccc2c(-c3ccccc3)cc(=O)oc2c1 (centres unmarked) [Compound 52, ethyl 2-(2-oxo-4-phenyl-chromen-7-yl)oxypropanoate] | 100 to 1000 nM | 50 to 500 nM
3 | CC(C)OC(=O)C(C)Oc1ccc2c(-c3ccccc3)cc(=O)oc2c1 (centres unmarked) [Compound 53, isopropyl 2-(2-oxo-4-phenyl-chromen-7-yl)oxypropanoate] | 20 to 100 nM | < 10 nM
4 | CCOC(=O)C(C)Oc1ccc2c(-c3ccc(OC)cc3)cc(=O)oc2c1 (centres unmarked) [Compound 65, ethyl 2-[4-(4-methoxyphenyl)-2-oxo-chromen-7-yl]oxypropanoate] | 1000 to 10000 nM | 500 to 10000 nM
